Drawing on patent publication US20140121258A1, “COMPOUNDS ACT AT MULTIPLE PROSTAGLANDIN RECEPTORS GIVING A GENERAL ANTI-INFLAMMATORY RESPONSE” (ALLERGAN, INC., priority 2010, published 2014), this text covers Kb for four molecules.

Holding throughout (format): cell-based
Assay [1] concerns the target T1, human prostanoid IP receptor (Homo sapiens, UniProt P43119).
T1 construct: expressed in transfected cells
As to the kind of experiment: FLIPR Ca2+ signaling antagonist assay, IP receptor stable cell line. The note with it: HEK-293 EBNA stable cells, standard agonist Cicaprost; NA = inactive (no antagonism or Kb≧10,000 nM). As to the method: (§1) The above compounds were tested for PG antagonist activity as follows using human recombinant prostanoid receptor (DP1, EP1-4, FP, IP and TP) stable cell lines:
(§2) In order to measure the response of Gs and Gi coupled prostanoid receptors as a Ca^2+ signal, chimeric G protein cDNAs were used. Stable cell lines over-expressing human prostanoid DP1, EP1-4, FP, IP, and TP receptors were established as follows:
(§3) Briefly, human prostanoid DP1, EP2, and EP4 receptor cDNAs were co-transfected with chimeric Gqs cDNA containing a haemagglutanin (HA) epitope; human prostanoid EP3 receptors were co-transfected with chimeric Gqi-HA; human EP1, FP, IP, and TP receptor cDNAs were expressed with no exogenous G-proteins. Gqs and Gqi chimeric cDNAs (Molecular Devices, Sunnyvale, Calif., U.S.A.), as well as cDNAs of prostanoid receptors, were cloned into a pCEP4 vector with a hygromycin B selection marker. Transfection into HEK-293 EBNA (Epstein-Barr virus nuclear antigen) cells was achieved by the FuGENE 6 transfection Reagent (Roche Applied Science, Indianapolis, Ind., USA). Stable transfectants were selected according to hygromycin resistance. Because Gqs and Gqi contained an HA epitope, G-protein expression was detected by Western blotting analysis using anti-mouse HA monoclonal antibody and horseradish peroxidase (HRP)-conjugated secondary antibody, while functional expression of prostanoid receptors was detected by FLIPR screening (Matias et al., 2004). These stable cell lines were validated using previously published antagonists at 10 μM against serial dilutions of standard agonists by FLIPR functional assays for Ca^2+ Signaling (as described below).
(§4) Ca^2+ signaling studies were performed using a FLIPR TETRA system (Molecular Devices, Sunnyvale, Calif., USA) in the 384-format. This is a high-throughput instrument for cell-based assays to monitor Ca^2+ signaling associated with GPCRs and ion channels. Cells were seeded at a density of 5×10^4 cells/well in BioCoat poly-D-lysine coated, black wall, clear bottom 384-well plates (BD Biosciences, Franklin lakes, NJ, USA) and allowed to attach overnight in an incubator at 37° C. The cells were then washed twice with HBSS-HEPES buffer (Hanks' balanced salt solution without bicarbonate and phenol red, 20 mM HEPES, pH 7.4) using an ELx405 Select CW Microplate Washer (BioTek, Winooski, Vt., USA). After 60 min of dye-loading in the dark using the Ca^2+-sensitive dye Fluo-4AM (Invitrogen, Carlsbad, Calif., USA), at a final concentration of 2×10^−6M, the plates were washed 4 times with HBSS-HEPES buffer to remove excess dye and leaving 50 μl of buffer in each well. The plates were then placed in the FLIPR TETRA instrument and allowed to equilibrate at 37° C. AGN-211377 was added in a 25 μl volume to each well to give final concentrations of 0.1 μM, 0.3 μM, 1 μM, 3 μM, 10 μM, and 30 μM; or 0.067 μM, 0.1 μM, 0.2 μM, 0.3 μM, 0.67 μM, and 1 μM for cells over-expressing TP receptors. After 4.5 minutes, a 7-point serial dilution of the standard agonist for the corresponding receptor, in a 25 μl volume was injected at the final concentrations from 10^−11M to 10^−5M in 10-fold serial dilution increments for cells expressing human recombinant DP1, EP1, EP2, EP3, EP4, FP, and IP receptors. The dose range for the standard agonist for human recombinant TP receptors was from 10^−12M to 10^−6M. HBSS-HEPES buffer was used as the negative control for the standard agonists. Cells were excited with LED (light emitting diode) excitation at 470-495 nm and emission was measured through an emission filter at 515-575 nm. Assay plates were read for 3.5 minutes using the FLIPR^TETRA. The peak increase in fluorescence intensity was recorded for each well. On each plate, negative controls, dose response of positive controls, and co-treatments of antagonist-agonist for each dose were in triplicates. Standard agonists were as follows: DP=BW 245C, EP1-EP4=PGE2, FP=17-phenyl-PGF2α, IP=Cicaprost, and TP=U-46619. […]

Assay [2] deals with T2, human prostanoid EP2 receptor (Homo sapiens, UniProt P43116).
T2 construct: expressed in transfected cells
As to the kind of experiment: FLIPR Ca2+ signaling antagonist assay, EP2 receptor stable cell line. To be noted: HEK-293 EBNA stable cells with chimeric Gqs, standard agonist PGE2; NA = inactive (no antagonism or Kb≧10,000 nM). The procedure:
as §1, §2, §3, §4

Assay [3] deals with T3, human prostanoid EP1 receptor (Homo sapiens, UniProt P34995).
T3 construct: expressed in transfected cells
T3 sequence (P34995 1-402): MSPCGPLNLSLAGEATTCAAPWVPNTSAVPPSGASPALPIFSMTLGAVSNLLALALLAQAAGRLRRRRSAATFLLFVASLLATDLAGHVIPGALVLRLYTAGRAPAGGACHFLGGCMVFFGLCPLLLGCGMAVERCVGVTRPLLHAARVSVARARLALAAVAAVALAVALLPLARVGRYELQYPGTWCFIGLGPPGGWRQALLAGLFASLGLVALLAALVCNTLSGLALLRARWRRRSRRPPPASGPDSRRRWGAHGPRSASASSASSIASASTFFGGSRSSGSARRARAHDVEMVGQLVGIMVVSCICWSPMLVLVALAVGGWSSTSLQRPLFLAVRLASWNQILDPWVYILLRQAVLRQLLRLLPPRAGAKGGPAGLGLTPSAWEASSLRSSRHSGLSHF
As to the kind of experiment: FLIPR Ca2+ signaling antagonist assay, EP1 receptor stable cell line. To be noted: HEK-293 EBNA stable cells, standard agonist PGE2; NA = inactive (no antagonism or Kb≧10,000 nM). As to the method: as §1, §2, §3, §4

Assay [4] has as its target T4, human prostanoid EP4 receptor (Homo sapiens, UniProt P35408).
T4 construct: expressed in transfected cells
The assay can be described thus: FLIPR Ca2+ signaling antagonist assay, EP4 receptor stable cell line. To be noted: HEK-293 EBNA stable cells with chimeric Gqs, standard agonist PGE2; NA = inactive (no antagonism or Kb≧10,000 nM). The procedure: as §1, §2, §3, §4

For assay [5], the target named is T5, human prostanoid FP receptor (Homo sapiens, UniProt P43088).
T5 construct: expressed in transfected cells
The assay can be described thus: FLIPR Ca2+ signaling antagonist assay, FP receptor stable cell line. To be noted: HEK-293 EBNA stable cells, standard agonist 17-phenyl-PGF2α; NA = inactive (no antagonism or Kb≧10,000 nM). As to the method:
as §1, §2, §3, §4

Structures are written as SMILES.

T2 sequence (P43116 whole entry): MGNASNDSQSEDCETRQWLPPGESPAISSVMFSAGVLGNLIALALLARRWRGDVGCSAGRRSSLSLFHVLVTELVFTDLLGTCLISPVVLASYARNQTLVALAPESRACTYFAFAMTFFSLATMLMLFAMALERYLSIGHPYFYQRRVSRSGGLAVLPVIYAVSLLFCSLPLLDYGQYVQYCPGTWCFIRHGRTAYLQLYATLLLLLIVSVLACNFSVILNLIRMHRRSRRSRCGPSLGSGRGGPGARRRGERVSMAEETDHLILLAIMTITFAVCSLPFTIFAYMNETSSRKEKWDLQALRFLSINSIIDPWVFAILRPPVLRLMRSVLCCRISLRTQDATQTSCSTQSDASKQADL
T4 sequence (P35408 whole entry): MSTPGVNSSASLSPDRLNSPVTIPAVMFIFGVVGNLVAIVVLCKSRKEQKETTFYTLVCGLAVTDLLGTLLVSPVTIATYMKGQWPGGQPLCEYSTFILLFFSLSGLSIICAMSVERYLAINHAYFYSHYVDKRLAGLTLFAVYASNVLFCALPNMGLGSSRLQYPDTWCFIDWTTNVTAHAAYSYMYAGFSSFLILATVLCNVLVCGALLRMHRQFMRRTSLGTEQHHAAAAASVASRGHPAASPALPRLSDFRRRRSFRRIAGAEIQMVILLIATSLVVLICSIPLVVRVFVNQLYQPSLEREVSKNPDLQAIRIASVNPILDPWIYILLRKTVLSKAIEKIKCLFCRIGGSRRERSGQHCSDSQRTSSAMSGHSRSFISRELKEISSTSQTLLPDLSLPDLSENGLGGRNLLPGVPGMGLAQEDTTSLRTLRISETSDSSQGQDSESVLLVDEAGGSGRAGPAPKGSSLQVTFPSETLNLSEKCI
T1 sequence (P43119 whole entry): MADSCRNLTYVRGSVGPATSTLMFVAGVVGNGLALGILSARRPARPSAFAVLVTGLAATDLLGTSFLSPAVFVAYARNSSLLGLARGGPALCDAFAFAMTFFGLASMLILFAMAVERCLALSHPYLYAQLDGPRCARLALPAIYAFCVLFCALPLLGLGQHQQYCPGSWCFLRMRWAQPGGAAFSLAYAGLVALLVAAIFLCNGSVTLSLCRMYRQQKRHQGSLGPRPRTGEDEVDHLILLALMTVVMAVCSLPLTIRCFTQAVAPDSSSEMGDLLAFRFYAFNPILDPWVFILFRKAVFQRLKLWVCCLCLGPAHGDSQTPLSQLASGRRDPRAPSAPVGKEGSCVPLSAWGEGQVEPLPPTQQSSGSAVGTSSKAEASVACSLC
T5 sequence (P43088 whole entry): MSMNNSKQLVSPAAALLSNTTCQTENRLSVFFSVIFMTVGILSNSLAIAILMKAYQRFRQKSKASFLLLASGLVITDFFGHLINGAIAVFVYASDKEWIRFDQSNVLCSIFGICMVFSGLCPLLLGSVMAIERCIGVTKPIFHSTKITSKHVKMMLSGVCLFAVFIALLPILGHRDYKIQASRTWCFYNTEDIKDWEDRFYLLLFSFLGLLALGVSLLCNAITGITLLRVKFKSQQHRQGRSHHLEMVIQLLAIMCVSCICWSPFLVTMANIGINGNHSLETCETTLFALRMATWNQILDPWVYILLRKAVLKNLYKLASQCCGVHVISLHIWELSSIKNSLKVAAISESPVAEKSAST

Take `Cc1cc(CCC(=O)NS(=O)(=O)C(F)(F)F)nn1Cc1cc(Cl)ccc1OCc1ccc(Cl)cc1` [Example 1, N-(3-{1-[5-Chloro-2-(4-Chloro-Benzyloxy)-Benzyl]-5-Methyl-1H-Pyrazol-3-yl}-Propionyl)-C,C,C-Trifluoromethanesulfonamide]: the Kb in assay [1] stood at 620 nM; in assay [2], 3100 nM; in assay [3] it was 22 nM; in assay [4], 150 nM; in assay [5], 140 nM.
With `CCC(CC)COc1ccc(Br)cc1Cn1nc(CCC(=O)O)cc1C` [Example 3, 3-{1-[5-Bromo-2-(2-ethyl-butoxy)-benzyl]-5-methyl-1H-pyrazol-3-yl}-propionic acid], the Kb in assay [1] was 1600 nM; in assay [2], 2300 nM; in assay [3], 40 nM; in assay [4], 85 nM; in assay [5], 75 nM.
For `CCC(CC)COc1ccc(Cl)cc1Cn1nc(CCC(=O)O)cc1C` [Example 3a, 3-{1-[5-Chloro-2-(2-ethyl-butoxy)-benzyl]-5-methyl-1H-pyrazol-3-yl}-propionic acid], the Kb in assay [1] is 1100 nM; in assay [2] it was 2900 nM; in assay [3] it was 71 nM; in assay [4] it was 68 nM; in assay [5] it was 180 nM.
For `Cc1cc(CCC(=O)O)nn1Cc1cc(Br)ccc1OCC1CCCC1` [Example 4, 3-[1-(5-Bromo-2-cyclopentylmethoxybenzyl)-5-methyl-1H-pyrazol-3-yl]-propionic acid] the same measures were 1600 nM, 1200 nM, 24 nM, 120 nM and 75 nM.

The Kb is the affinity of an antagonist, worked out from how it opposes an agonist. High values mean a less potent antagonist, low ones a more potent antagonist.
